Results taken from the supplement of paper PMC4977894.
Where a name gives a salt, the structure may show the parent alone. ± gives the standard deviation of the averaged measurements.

Columns and labels:
[1] = system: Homo sapiens (human subject panel, olfactory perception); experiment: perceived odor familiarity rating (rating 0-100); higher = more familiar
Description: (§1)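 Human olfactory psychophysics. 55 healthy subjects (after excluding 6 low performers) sniffed 1 mL of each odorant diluted in paraffin oil (vials, two dilutions per molecule, 20 molecules presented twice). Each subject rated intensity, pleasantness and familiarity on a 0-100 slider, starting at 50 and required to move. Ratings were given only when the subject reported detecting a smell; per-subject ratings are averaged over subjects.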

[2] = system: Homo sapiens (human subject panel, olfactory perception); experiment: perceived odor pleasantness rating (rating 0-100); higher = more pleasant
Description: as §1

[3] = system: Homo sapiens (human subject panel, olfactory perception); experiment: perceived odor intensity rating (rating 0-100); higher = stronger perceived smell
Description: as §1

[4] = odor dilution in paraffin oil: 1/1,000
[5] = odor dilution in paraffin oil: 1/100,000
[6] = odor dilution in paraffin oil: 1/10
[7] = odor dilution in paraffin oil: 1/10,000,000

Row | SMILES | perceived odor familiarity rating [1, 4] | perceived odor familiarity rating [1, 5] | perceived odor pleasantness rating [2, 4] | perceived odor pleasantness rating [2, 5] | perceived odor intensity rating [3, 4] | perceived odor intensity rating [3, 5] | perceived odor familiarity rating [1, 6] | perceived odor pleasantness rating [2, 6] | perceived odor intensity rating [3, 6] | perceived odor familiarity rating [1, 7] | perceived odor pleasantness rating [2, 7] | perceived odor intensity rating [3, 7]
1 | CCC(=O)OCc1ccccc1 [Benzyl propionate] | 50.7 ± 32 | 34.5 ± 24 | 67.2 ± 23 | 44 ± 28 | 53 ± 30 | 30 ± 32 | – | – | – | – | – | –
2 | CCCCCCCO [heptanol (replicate)] | 51.9 ± 33 | 39.9 ± 29 | 48.5 ± 29 | 58 ± 23 | 72.2 ± 24 | 29.7 ± 30 | – | – | – | – | – | –
3 | CCc1ccccc1O [2-ethylphenol] | 64.4 ± 28 | 51.6 ± 33 | 29.2 ± 27 | 33.2 ± 24 | 83.3 ± 18 | 67.7 ± 27 | – | – | – | – | – | –
4 | CCCCC(=O)OC [Methyl valerate] | 55.1 ± 31 | 46.1 ± 28 | 42.4 ± 31 | 48.8 ± 28 | 65.2 ± 26 | 49.4 ± 30 | – | – | – | – | – | –
5 | CCCCCCOC(=O)CCCCC [Hexyl hexanoate] | 38 ± 29 | – | 48.2 ± 23 | – | 34.4 ± 26 | – | 39 ± 26 | 43.8 ± 25 | 67.7 ± 26 | – | – | –
6 | CSC [methyl sulfide] | 43.7 ± 34 | 47.3 ± 32 | 33.6 ± 27 | 33.4 ± 27 | 56.4 ± 35 | 58.8 ± 32 | – | – | – | – | – | –
7 | CC1=CCC(C(C)(C)OC=O)CC1 (stereo unspecified) [Terpinyl formate] | 45.6 ± 31 | 28.1 ± 26 | 37.8 ± 26 | 46.9 ± 30 | 42.2 ± 30 | 14.6 ± 20 | – | – | – | – | – | –
8 | CCCCOC(=O)CC(CC(=O)OCCCC)(OC(C)=O)C(=O)OCCCC [Tributyl-2-Acetylcitrate] | 37.7 ± 28 | – | 51.5 ± 23 | – | 6.93 ± 11 | – | 35.9 ± 28 | 43.2 ± 22 | 41.4 ± 30 | – | – | –
9 | C/C=C/C=C/COC(C)=O [trans,trans-2,4-Hexadienyl acetate (replicate)] | 30.6 ± 27 | – | 49.5 ± 25 | – | 23.5 ± 26 | – | 30.4 ± 25 | 47.6 ± 22 | 19.1 ± 20 | – | – | –
10 | CCCCCC/C=C\CO [cis-2-Nonen-1-ol] | 46.3 ± 30 | 40.8 ± 30 | 34.7 ± 25 | 36 ± 21 | 77.9 ± 21 | 54.7 ± 32 | – | – | – | – | – | –
11 | c1ccc(COCc2ccccc2)cc1 [Benzyl ether] | 31 ± 26 | – | 49.2 ± 23 | – | 25.2 ± 26 | – | 63.8 ± 32 | 67.8 ± 27 | 75.7 ± 24 | – | – | –
12 | CC(=O)OCC(COC(C)=O)OC(C)=O [Triacetin] | 39.2 ± 35 | – | 38.9 ± 24 | – | 45.1 ± 30 | – | 54.5 ± 35 | 33.1 ± 25 | 57.8 ± 29 | – | – | –
13 | C=C(C)OC(C)=O [Isopropenyl acetate] | – | 31.1 ± 27 | – | 46.9 ± 24 | – | 27.1 ± 25 | – | – | – | 38.2 ± 31 | 45.5 ± 21 | 18.8 ± 26
14 | C=C(C)C(=O)OC [Methyl methacrylate] | 45.7 ± 28 | 37 ± 26 | 39.3 ± 25 | 47.4 ± 26 | 55 ± 33 | 15.1 ± 22 | – | – | – | – | – | –
15 | CC(C)CO [2-methyl-1-propanol] | 38.5 ± 34 | 35.4 ± 28 | 37.4 ± 23 | 43.5 ± 21 | 42.5 ± 33 | 23.4 ± 23 | – | – | – | – | – | –
16 | CCCCC(CC)C(=O)O (stereo unspecified) [2-Ethylhexanoic acid] | 47.7 ± 28 | – | 38.1 ± 22 | – | 47.8 ± 31 | – | 46.6 ± 29 | 28.4 ± 21 | 73.7 ± 23 | – | – | –
17 | COc1cccc(OC)c1 [1,3-Dimethoxybenzene] | 54.1 ± 26 | 33.2 ± 27 | 49.7 ± 26 | 45.8 ± 28 | 68.4 ± 22 | 32.6 ± 30 | – | – | – | – | – | –
18 | O=C(O)/C=C/C(=O)O [Fumaric acid] | 44 ± 31 | – | 49.5 ± 25 | – | 17.1 ± 23 | – | 51.9 ± 32 | 36.9 ± 24 | 58.8 ± 26 | – | – | –

Row | SMILES | perceived odor familiarity rating [1, 4] | perceived odor familiarity rating [1, 5] | perceived odor pleasantness rating [2, 4] | perceived odor pleasantness rating [2, 5] | perceived odor intensity rating [3, 4] | perceived odor intensity rating [3, 5] | perceived odor familiarity rating [1, 6] | perceived odor pleasantness rating [2, 6] | perceived odor intensity rating [3, 6] | perceived odor familiarity rating [1, 7] | perceived odor pleasantness rating [2, 7] | perceived odor intensity rating [3, 7]
19 | O=C(O)[C@@H]1CCCN1 [L-Proline] | 45.8 ± 35 | – | 22.8 ± 24 | – | 60.2 ± 31 | – | 45.3 ± 30 | 27.9 ± 28 | 81.4 ± 20 | – | – | –
20 | CCCCCCCCCC(=O)O [decanoic acid] | 40.6 ± 29 | – | 28.7 ± 19 | – | 50.2 ± 30 | – | 47.4 ± 34 | 28.3 ± 26 | 75.9 ± 22 | – | – | –
21 | C=CC(O)CC (stereo unspecified) [1-Penten-3-ol] | 43 ± 35 | 34.7 ± 24 | 40.7 ± 29 | 43.3 ± 22 | 53 ± 32 | 31.3 ± 32 | – | – | – | – | – | –
22 | CCCCC/C=C\C/C=C\CCCCCCCC(=O)O [Linoleic acid] | 41.2 ± 27 | – | 31.2 ± 21 | – | 64.8 ± 23 | – | 48.7 ± 34 | 13.9 ± 15 | 90.8 ± 13 | – | – | –
23 | N[C@@H](Cc1c[nH]cn1)C(=O)O [L-Histidine] | 28.5 ± 28 | – | 44.3 ± 26 | – | 19.9 ± 24 | – | 44.2 ± 29 | 34.6 ± 26 | 53.2 ± 34 | – | – | –
24 | CC(=O)c1ccccc1O [2-Hydroxyacetophenone] | 49.6 ± 33 | 43.8 ± 29 | 29.5 ± 25 | 39.2 ± 24 | 80.7 ± 17 | 48.5 ± 30 | – | – | – | – | – | –
25 | Cc1nc(C)c(C)nc1C [2,3,5,6-Tetramethylpyrazine] | 35.7 ± 28 | – | 49.4 ± 22 | – | 25.8 ± 25 | – | 41.3 ± 31 | 28.7 ± 23 | 79.1 ± 18 | – | – | –
26 | CCC(O)CC [3-pentanol] | 58.3 ± 32 | 44 ± 33 | 34 ± 26 | 33.4 ± 25 | 76.4 ± 18 | 39.4 ± 35 | – | – | – | – | – | –
27 | CSCCCN=C=S [3-(Methylthio)propyl isothiocyanate] | 49.7 ± 32 | 47.6 ± 30 | 25.2 ± 26 | 34.3 ± 27 | 82.7 ± 21 | 62.5 ± 29 | – | – | – | – | – | –
28 | CC(=O)OC/C=C(/C)CCC=C(C)C [Neryl acetate] | 35.6 ± 28 | – | 43 ± 18 | – | 14.7 ± 20 | – | 49.1 ± 28 | 49.9 ± 26 | 67.2 ± 26 | – | – | –
29 | CCCCC(CC)CO (stereo unspecified) [2-ethyl-1-hexanol] | 42.1 ± 30 | 43.6 ± 31 | 19.4 ± 22 | 25.9 ± 23 | 79.7 ± 19 | 51.2 ± 34 | – | – | – | – | – | –
30 | COc1ccccc1C=O [o-Anisaldehyde (replicate)] | 50.7 ± 31 | 46 ± 29 | 40.8 ± 28 | 40.3 ± 24 | 72.1 ± 23 | 36 ± 32 | – | – | – | – | – | –
31 | CCCOC(=O)CCC [propyl butyrate] | 52.5 ± 27 | 39.4 ± 27 | 42.5 ± 27 | 33.6 ± 25 | 64.7 ± 27 | 36.7 ± 31 | – | – | – | – | – | –
32 | CCCCCCCCCCCCCC(=O)OC(C)C [Isopropyl myristate] | 35.2 ± 26 | – | 50.6 ± 23 | – | 20.3 ± 25 | – | 24.4 ± 24 | 45.4 ± 21 | 26 ± 27 | – | – | –
33 | CCCC(=O)CCC [4-Heptanone] | 55.4 ± 27 | 41.1 ± 29 | 49.3 ± 23 | 51.6 ± 24 | 69.3 ± 24 | 34.7 ± 31 | – | – | – | – | – | –
34 | CCCCCC(C=O)=Cc1ccccc1 [alpha-Amylcinnamaldehyde] | 36 ± 27 | – | 33.2 ± 26 | – | 54.4 ± 32 | – | 45.1 ± 31 | 43.5 ± 27 | 65.5 ± 29 | – | – | –
35 | CCC(=O)OCCCc1ccccc1 [3-Phenylpropyl propionate] | 49.1 ± 28 | 38.6 ± 32 | 36.4 ± 28 | 49.8 ± 27 | 62.9 ± 26 | 28.4 ± 34 | – | – | – | – | – | –
36 | CC(=O)c1cc(C)sc1C [3-Acetyl-2,5-dimethylthiophene] | 47.4 ± 29 | 35.4 ± 30 | 27.7 ± 26 | 49.4 ± 29 | 78.9 ± 20 | 19.4 ± 20 | – | – | – | – | – | –
